What follows are molecules tested against T1, full-length human PKCι (Homo sapiens, UniProt P41743) (assay: PKCι IC50 IMAP fluorescence polarisation assay, full-length enzyme). Details: full length PKCi at 15 μM ATP; read-out: IC50 in IMAP assay against full length PKCi.
T1 construct: Recombinant, full-length human PKCι expressed in Sf21 insect cells is also commercially available; purchased; host or cells: Sf21 insect cells
T1 sequence (P41743 1-596): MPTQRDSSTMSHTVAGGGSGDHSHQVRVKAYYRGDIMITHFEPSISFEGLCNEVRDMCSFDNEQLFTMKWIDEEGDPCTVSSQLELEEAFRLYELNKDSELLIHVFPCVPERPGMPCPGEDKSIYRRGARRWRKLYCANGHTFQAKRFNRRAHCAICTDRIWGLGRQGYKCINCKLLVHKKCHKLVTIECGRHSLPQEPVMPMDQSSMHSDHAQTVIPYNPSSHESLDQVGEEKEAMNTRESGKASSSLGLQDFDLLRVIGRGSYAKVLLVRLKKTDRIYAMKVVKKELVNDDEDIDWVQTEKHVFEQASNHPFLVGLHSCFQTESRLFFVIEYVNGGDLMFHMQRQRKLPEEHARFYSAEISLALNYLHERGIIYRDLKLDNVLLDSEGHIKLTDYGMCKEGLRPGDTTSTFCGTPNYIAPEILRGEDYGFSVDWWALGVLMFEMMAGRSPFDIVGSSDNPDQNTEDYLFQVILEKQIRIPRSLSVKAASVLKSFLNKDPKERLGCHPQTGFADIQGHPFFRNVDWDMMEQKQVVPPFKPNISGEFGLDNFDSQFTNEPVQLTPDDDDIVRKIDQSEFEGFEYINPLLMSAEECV
Type: biochemical
Experimental: Assays are based on the ability of PKCι to phosphorylate a commercially available peptide substrate in vitro. […] Recombinant, full-length human PKCι expressed in Sf21 insect cells is also commercially available. Recombinant, kinase-domain human PKCι is expressed and purified in-house.
The procedure below explains how dose response curves for inhibitors of PKCι are obtained.
Compounds to be tested are dissolved in 100% DMSO. […] 1 μl is plated into 384 well black low-binding flat bottomed assay plates which are used immediately. Dilutions and additions of compound to assay plates are carried out using Matrix WellMate® and Matrix PlateMate® Plus liquid handling systems.
The final concentration of peptide substrate in the assay is 100 nM. […] Relevant controls are included, namely no compound and no enzyme. […] The reaction is allowed to incubate for 60 minutes at room temperature, before the reaction is stopped and developed by the addition of 20 μl IMAP™ development reagent (Molecular Devices). IMAP development reagent consists of 0.25% (v/v) IMAP progressive binding reagent, 17% (v/v) IMAP progressive binding buffer A and 3% (v/v) IMAP progressive binding buffer B. The plates are then incubated for 2 hours at room temperature before being read using an appropriate plate reader, for example a Molecular Devices HT Analyst or a BMG Pherastar.

Compound	IC50 [nM]
O=C(Nc1csc2c(N[C@@H]3CCNC3)nc(-c3ccncc3)nc12)C1CCCCC1 [compound 473, Cyclohexanecarboxylic acid [2-pyridin-4-yl-4-((R)-pyrrolidin-3-ylamino)-thieno[3,2-d]pyrimidin-7-yl]-amide]	10000 to 40000
N[C@H](CNc1nc(-c2ccncc2)nc2c(Nc3ccccn3)csc12)Cc1ccccc1 [compound 486, N*4*-((S)-2-Amino-3-phenyl-propyl)-2-pyridin-4-yl-N*7*-pyridin-2-yl-thieno[3,2-d]pyrimidine-4,7-diamine]	< 100
CC(C)(C)c1sc2c(NC[C@@H](N)Cc3ccccc3)nc(-c3ccncc3)nc2c1-c1ccccc1 [compound 451, (S)-N*1*-(6-tert-Butyl-7-phenyl-2-pyridin-4-yl-thieno[3,2-d]pyrimidin-4-yl)-3-phenyl-propane-1,2-diamine]	10000 to 40000
CC(C)Cn1cc(-c2csc3c(NC[C@@H](N)Cc4ccccc4)nc(-c4ccncc4)nc23)cn1 [compound 394, (S)-N*1*-[7-(1-Isobutyl-1H-pyrazol-4-yl)-2-pyridin-4-yl-thieno[3,2-d]pyrimidin-4-yl]-3-phenyl-propane-1,2-diamine]	1000 to 10000
Fc1cnc(Nc2cnccn2)cc1-c1nc(N[C@@H]2CCNC2)c2sccc2n1 [compound 580, {2-[5-Fluoro-2-(pyrazin-2-ylamino)-pyridin-4-yl]-thieno[3,2-d]pyrimidin-4-yl}-(R)-pyrrolidin-3-yl-amine]	100 to 1000
Cc1ccsc1-c1csc2c(NC[C@@H](N)Cc3ccccc3)nc(-c3ccncc3)nc12 [compound 396, (S)-N*1*-[7-(3-Methyl-thiophen-2-yl)-2-pyridin-4-yl-thieno[3,2-d]pyrimidin-4-yl]-3-phenyl-propane-1,2-diamine]	100 to 1000
O=C(Nc1cc(-c2nc(N[C@@H]3CCNC3)c3sccc3n2)ccn1)N1CCCCC1 [compound 584, Piperidine-1-carboxylic acid {4-[4-((R)-pyrrolidin-3-ylamino)-thieno[3,2-d]pyrimidin-2-yl]-pyridin-2-yl}-amide]	1000 to 10000
c1cc(-c2nc(N[C@@H]3CCNC3)c3sccc3n2)cc(NC2CC2)n1 [compound 594, [2-(2-Cyclopropylamino-pyridin-4-yl)-thieno[3,2-d]pyrimidin-4-yl]-(R)-pyrrolidin-3-yl-amine]	1000 to 10000
N[C@H](CNc1nc(-c2ccncc2)nc2c(C(=O)NC3CC3)csc12)Cc1ccccc1 [compound 556, 4-((S)-2-Amino-3-phenyl-propylamino)-2-pyridin-4-yl-thieno[3,2-d]pyrimidine-7-carboxylic acid cyclopropylamide]	100 to 1000
CC#Cc1csc2c(NC[C@@H](N)Cc3ccccc3)nc(-c3ccncc3)nc12 [compound 542, (S)-3-Phenyl-N*1*-(7-prop-1-ynyl-2-pyridin-4-yl-thieno[3,2-d]pyrimidin-4-yl)-propane-1,2-diamine]	< 100
CC(C)(C)c1sc2c(NC[C@@H](N)Cc3ccccc3)nc(-c3ccncc3)nc2c1-c1ccoc1 [compound 445, (S)-N*1*-(6-tert-Butyl-7-furan-3-yl-2-pyridin-4-yl-thieno[3,2-d]pyrimidin-4-yl)-3-phenyl-propane-1,2-diamine]	10000 to 40000
N[C@H](CNc1nc(-c2ccncc2)nc2c(-c3ccc[nH]3)csc12)Cc1ccccc1 [compound 397, (S)-3-Phenyl-N*1*-[2-pyridin-4-yl-7-(1H-pyrrol-2-yl)-thieno[3,2-d]pyrimidin-4-yl]-propane-1,2-diamine]	100 to 1000
Cc1sc2c(NC[C@@H](N)Cc3ccccc3)nc(-c3ccncc3)nc2c1-c1cc(Cl)ccc1OC(C)C [compound 460, (S)-N*1*-[7-(5-Chloro-2-isopropoxy-phenyl)-6-methyl-2-pyridin-4-yl-thieno[3,2-d]pyrimidin-4-yl]-3-phenyl-propane-1,2-diamine]	10000 to 40000
NC(=O)CN1CC[C@@H](Nc2nc(-c3ccnc(Nc4ccccc4)c3)nc3ccsc23)C1 [compound 631, 2-{(R)-3-[2-(2-Phenylamino-pyridin-4-yl)-thieno[3,2-d]pyrimidin-4-ylamino]-pyrrolidin-1-yl}-acetamide]	10000 to 40000
CC(C)(C)NC(=O)c1csc2c(NC[C@@H](N)Cc3ccccc3)nc(-c3ccncc3)nc12 [compound 557, 4-((S)-2-Amino-3-phenyl-propylamino)-2-pyridin-4-yl-thieno[3,2-d]pyrimidine-7-carboxylic acid tert-butylamide]	1000 to 10000
O=C(Nc1cc(-c2nc(N[C@@H]3CCNC3)c3sccc3n2)ccn1)C1CC1 [compound 599, Cyclopropanecarboxylic acid {4-[4-((R)-pyrrolidin-3-ylamino)-thieno[3,2-d]pyrimidin-2-yl]-pyridin-2-yl}-amide]	100 to 1000
CNC(=O)c1csc2c(NC[C@@H](N)Cc3ccccc3)nc(-c3ccncc3)nc12 [compound 553, 4-((S)-2-Amino-3-phenyl-propylamino)-2-pyridin-4-yl-thieno[3,2-d]pyrimidine-7-carboxylic acid methylamide]	< 100
COc1ccncc1-c1c(C)sc2c(NC[C@@H](N)Cc3ccccc3)nc(-c3ccncc3)nc12 [compound 439, (S)-N*1*-[7-(4-Methoxy-pyridin-3-yl)-6-methyl-2-pyridin-4-yl-thieno[3,2-d]pyrimidin-4-yl]-3-phenyl-propane-1,2-diamine]	10000 to 40000
COc1cnccc1-c1c(C)sc2c(NC[C@@H](N)Cc3ccccc3)nc(-c3ccncc3)nc12 [compound 456, (S)-N*1*-[7-(3-Methoxy-pyridin-4-yl)-6-methyl-2-pyridin-4-yl-thieno[3,2-d]pyrimidin-4-yl]-3-phenyl-propane-1,2-diamine]	10000 to 40000
CC(C)(C)c1sc2c(NC[C@@H](N)Cc3ccccc3)nc(-c3ccncc3)nc2c1-c1cn[nH]c1 [compound 437, (S)-N*1*-[6-tert-Butyl-7-(1H-pyrazol-4-yl)-2-pyridin-4-yl-thieno[3,2-d]pyrimidin-4-yl]-3-phenyl-propane-1,2-diamine]	1000 to 10000
c1cc(-c2nc(N[C@@H]3CCNC3)c3sccc3n2)ccn1 [compound 317, (2-Pyridin-4-yl-thieno[3,2-d]pyrimidin-4-yl)-(R)-pyrrolidin-3-yl-amine]	1000 to 10000
C[C@H](O)CC#Cc1csc2c(NC[C@@H](N)Cc3ccccc3)nc(-c3ccncc3)nc12 [compound 540, (S)-5-[4-((S)-2-Amino-3-phenyl-propylamino)-2-pyridin-4-yl-thieno[3,2-d]pyrimidin-7-yl]-pent-4-yn-2-ol]	100 to 1000
N[C@H](CNc1nc(-c2ccncc2)nc2c(C#Cc3ccccn3)csc12)Cc1ccccc1 [compound 529, (S)-3-Phenyl-N*1*-(2-pyridin-4-yl-7-pyridin-2-ylethynyl-thieno[3,2-d]pyrimidin-4-yl)-propane-1,2-diamine]	100 to 1000
N[C@H](CNc1nc(-c2ccncc2)nc2ccsc12)Cc1ccccc1 [compound 314, (S)-3-Phenyl-N*1*-(2-pyridin-4-yl-thieno[3,2-d]pyrimidin-4-yl)-propane-1,2-diamine]	100 to 1000
C=Cc1csc2c(NC[C@@H](N)Cc3ccccc3)nc(-c3ccncc3)nc12 [compound 408, (S)-3-Phenyl-N*1*-(2-pyridin-4-yl-7-vinyl-thieno[3,2-d]pyrimidin-4-yl)-propane-1,2-diamine]	< 100

Same assay, conditions: full length PKCi at 15 μM ATP; read-out: IC50 in IMAP assay against full length PKCi (Activity)

Compound	IC50 [nM]
Cc1ccccc1C[C@H](N)CNc1nc(-c2ccncc2)nc2sc3c(c12)CCCC3 [compound 53, (S)-N*1*-(2-Pyridin-4-yl-5,6,7,8-tetrahydro-benzo[4,5]thieno[2,3-d]pyrimidin-4-yl)-3-o-tolyl-propane-1,2-diamine]	100 to 1000
CC(=O)N1CCc2c(sc3nc(-c4ccncc4)nc(NCCN)c23)C1 [compound 105, 1-[4-(2-Amino-ethylamino)-2-pyridin-4-yl-5,8-dihydro-6H-pyrido[4′,3′:4,5]thieno[2,3-d]pyrimidin-7-yl]-ethanone]	1000 to 10000
NCCNc1nc(-c2ccncc2)nc2sc3c(c12)CCSC3 [compound 44, N*1*-(2-Pyridin-4-yl-5,8-dihydro-6H-thio-pyrano[4′,3′:4,5]thieno[2,3-d]pyrimidin-4-yl)-ethane-1,2-diamine]	1000 to 10000
